In one series the test system is VHL protein. Details: method as in PMID 28288108, PMID 30721025. To be noted: cited from earlier work.
A further series can be described thus: in vitro. The following applies: PAMPA.
The target in a further series is T1, VHL (Homo sapiens, UniProt P40337).
T1 construct: each well solution containing 15 nM VCB
Kind of series: Fluorescence polarization (FP) competitive binding assay. To be noted: 15 nM VCB protein, 10 nM FAM-labeled HIF-1α peptide JC9, read-out: Kd (FP-derived).

The conditions of series [1]: for LPE: LPE = LogD(dec/w) – 1.06(ALogP) + 5.47.
The test system of series [2] is HL60. More on the design: method as in Chan et al. 2018 (ref1). The following applies: cell proliferation, 48 h treatment; ref Chan et al. 2018 (ref1); cited from earlier work.
The test system of series [3] is MV4;11. The following applies: cited from earlier work; for pEC50 (MV4;11): cell proliferation, 48 h treatment, ref Chan et al. 2018 (ref1).
For series [4], the system named is MV4;11. Kind of series: Cell proliferation assay, MV4;11. It counts as cell-based. To be noted: Homo sapiens, 48 h treatment, read-out: pEC50 (MV4;11) (converted). From the text: (§1) IX. Cell proliferation assay
(§2) Cell proliferation data were collected as described in Chan et al. 2018 pg. 511 titled “Cell

For series [5], the system named is HL60. Kind of series: Cell proliferation assay, HL60. Format: cell-based. To be noted: for EC50: Homo sapiens, HL-60, 48 h treatment, read-out: pEC50 (HL60) (converted); for pEC50 (HL60): 48 h treatment.
Description: as §1, §2

A further series has as its system VHL E3 ubiquitin ligase. More on the design: method as in PMID 29018234. The following applies: cited from earlier work.

Where two headings read alike, the source gives them in different places.

As for `CC(=O)N[C@H](C(=O)N1C[C@H](O)C[C@H]1C(=O)NCc1ccc(-c2scnc2C)cc1)C(C)(C)SCCCCCCNC(=O)C[C@@H]1N=C(c2ccc(Cl)cc2)c2c(sc(C)c2C)-n2c(C)nnc21` [AT1], the “fold lower binding affinity for the VHL protein compared to 8” value in the series with VHL protein is 5 fold.

`Cc1sc2c(c1C)C(c1ccc(Cl)cc1)=N[C@@H](CC(=O)OC(C)(C)C)c1nnc(C)n1-2` [Compound 1, reference compound] gave a Papp in the series “in vitro” (pH 7.4, PAMPA permeability (Pe)) of no less than 5 ×10⁻⁶ cm/s.

`Cc1ncsc1-c1ccc(CNC(=O)[C@@H]2C[C@@H](O)CN2C(=O)[C@@H](OC(=O)Cc2ccccc2)C(C)(C)C)cc1` [Compound 3]: the Kd on VHL was found to be 800 nM.

For the molecule `Cc1ncsc1-c1ccc(CNC(=O)[C@@H]2C[C@@H](O)CN2C(=O)[C@@H](NC(=O)Cc2ccccc2)C(C)(C)C)cc1` [Compound 4], the LPE in series [1] is reported as 2.0. In “in vitro” (pH 7.4), this molecule showed a Papp of no less than 5 ×10⁻⁶ cm/s and a Papp at 7 h of 8.6 ×10⁻⁶ cm/s.

`Cc1ncsc1-c1ccc(CNC(=O)[C@@H]2C[C@@H](O)CN2C(=O)[C@@H](OC(=O)CCOCCOCCOCCNC(=O)Cc2ccccc2)C(C)(C)C)cc1` [Compound 5]: in [1] (comparator compound 3), the “ΔLPE (lower than 3)” value was 0.8. For the same molecule, the apparent permeability (Papp) at 7 h in the series “in vitro” (pH 7.4) came out at 0.3 ± 0.1 ×10⁻⁶ cm/s. Also, the “fold more permeable than 6 (PAMPA)” value (pH 7.4) was determined as 1.5 fold.

As to `Cc1ncsc1-c1ccc(CNC(=O)[C@@H]2C[C@@H](O)CN2C(=O)[C@@H](NC(=O)CCOCCOCCOCCNC(=O)Cc2ccccc2)C(C)(C)C)cc1` [Compound 6], the “ΔLPE (lower than 4)” value in [1] (comparator compound 4) was 0.4. This molecule registered a Papp at 7 h in “in vitro” (pH 7.4) of 0.2 ± 0.03 ×10⁻⁶ cm/s.

As for `Cc1ncsc1-c1ccc(CNC(=O)[C@@H]2C[C@@H](O)CN2C(=O)[C@@H](NC(=O)COCCOCCNC(=O)C[C@@H]2N=C(c3ccc(Cl)cc3)c3c(sc(C)c3C)-n3c(C)nnc32)C(C)(C)C)cc1` [Compound 7], in the series on HL60 [2], the “pEC50 (HL60)” value is listed as 5.84. Also, in the series with MV4;11 [3], the “pEC50 (MV4;11)” value is reported as 6.75. The LPE in [1] was determined as 0.4. Moreover, in the series “in vitro” (pH 7.4), the Papp was greater than 0.6 ×10⁻⁶ cm/s and the Papp at 15 h was 0.6 ×10⁻⁶ cm/s. Further, where the note is “pH 7.4”, the “fold more permeable than 8 (PAMPA)” value was found to be 20 fold; the “fold more permeable than 9 (PAMPA)” value is recorded as 100 fold; the “fold more permeable than 15 (PAMPA)” value is listed as 120 fold; the “fold more permeable than 17 and 14 (PAMPA)” value is given as 300 fold.

`Cc1ncsc1-c1ccc(CNC(=O)[C@@H]2C[C@@H](O)CN2C(=O)[C@@H](NC(=O)COCCOCCOCCNC(=O)C[C@@H]2N=C(c3ccc(Cl)cc3)c3c(sc(C)c3C)-n3c(C)nnc32)C(C)(C)C)cc1` [Compound 8]: the “pEC50 (HL60)” value with HL60 [2] is given as 6.8. Besides, the “activity relative to 7 (cellular antiproliferation)” value in the series with MV4;11 [3] (SI Table 2, MV4;11 and HL60) is on record as “one log unit”. In addition, in the series on MV4;11 [3], the “pEC50 (MV4;11)” value is 7.57. In “in vitro” (pH 7.4), this molecule gave a Papp greater than 0.6 ×10⁻⁶ cm/s and a Papp at 15 h of 0.03 ± 0.01 ×10⁻⁶ cm/s. For the same molecule, under “pH 7.4”, the “fold difference in permeability vs 16 (PAMPA)” value worked out at 10 fold and the “fold less permeable than 7 (PAMPA)” value amounted to 20 fold.

For `Cc1ncsc1-c1ccc(CNC(=O)[C@@H]2C[C@@H](O)CN2C(=O)[C@@H](NC(=O)[C@H](Cc2ccccc2)NC(=O)COCCOCCOCCNC(=O)C[C@@H]2N=C(c3ccc(Cl)cc3)c3c(sc(C)c3C)-n3c(C)nnc32)C(C)(C)C)cc1` [Compound 9], the EC50 in the series with MV4;11 [4] was 457 nM; in the series with HL60 [5], 4170 nM. In series [1], the LPE is recorded as -1.1. In addition, in series [1] (addition of a Phe residue to 8), the “decrease in LPE vs 8” value was determined as 1.2 unit. In addition, the Papp at 15 h in the series “in vitro” (pH 7.4) stood at 0.006 ×10⁻⁶ cm/s. Also, the “fold decrease in permeability vs 8 (PAMPA)” value (pH 7.4) amounted to 5 fold.

Consider `CC(=O)N1c2ccc(-c3ccc(C(=O)NCCOCCOCC(=O)N[C@H](C(=O)N4C[C@H](O)C[C@H]4C(=O)NCc4ccc(-c5scnc5C)cc4)C(C)(C)C)cc3)cc2[C@H](Nc2ccc(Cl)cc2)C[C@@H]1C` [Compound 10], for which the “pEC50 (HL60)” value with HL60 [2] is recorded as 6.17. In the series on MV4;11 [3], the “pEC50 (MV4;11)” value is 6.24. Besides, the LPE in series [1] is recorded as -0.1. This molecule also showed a Papp at 15 h in the series “in vitro” (pH 7.4) of 0.3 ± 0.1 ×10⁻⁶ cm/s. The “fold difference in permeability vs 11 (PAMPA)” value (pH 7.4) is reported as 2 fold.

`CC(=O)N1c2ccc(-c3ccc(C(=O)NCCOCCOCCOCCOCC(=O)N[C@H](C(=O)N4C[C@H](O)C[C@H]4C(=O)NCc4ccc(-c5scnc5C)cc4)C(C)(C)C)cc3)cc2[C@H](Nc2ccc(Cl)cc2)C[C@@H]1C` [Compound 11]: in the series on HL60 [2], the “pEC50 (HL60)” value is 6.37. In addition, the “pEC50 (MV4;11)” value in the series with MV4;11 [3] is recorded as 7.08. The LPE in series [1] was determined as 0.2. The molecule further gave a Papp at 15 h in “in vitro” (pH 7.4) of 0.16 ± 0.14 ×10⁻⁶ cm/s.

Take `Cc1ncsc1-c1ccc(CNC(=O)[C@@H]2C[C@@H](O)CN2C(=O)[C@@H](NC(=O)COCCOCCOCCOCC(=O)N[C@H](C(=O)N2C[C@H](O)C[C@H]2C(=O)NCc2ccc(-c3scnc3C)cc2)C(C)(C)C)C(C)(C)C)cc1` [Compound 12]: the LPE in series [1] (listed as CM9 (12)) is 0.8. The Papp in “in vitro” (pH 7.4) came out at 0.009 ×10⁻⁶ cm/s.

On to `Cc1ncsc1-c1ccc(CNC(=O)[C@@H]2C[C@@H](O)CN2C(=O)[C@@H](NC(=O)COCCOCCOCCOCCOCCOCC(=O)N[C@H](C(=O)N2C[C@H](O)C[C@H]2C(=O)NCc2ccc(-c3scnc3C)cc2)C(C)(C)C)C(C)(C)C)cc1` [Compound 13], for which the “permeability relative to 12 (PAMPA)” value was “reduced by half”. Also, the LPE in series [1] (listed as CM11 (13)) is reported as 0.6. The same molecule displayed a Papp in “in vitro” (pH 7.4) of 0.005 ×10⁻⁶ cm/s. Further, the “activity relative to 12 (cellular protein degradation assay)” value with VHL E3 ubiquitin ligase was “two log units”.

`Cc1ncsc1-c1ccc(CNC(=O)[C@@H]2C[C@H](O)CN2C(=O)[C@@H](NC(=O)COCCOCCOCCOCCOCCOCC(=O)N[C@H](C(=O)N2C[C@@H](O)C[C@H]2C(=O)NCc2ccc(-c3scnc3C)cc2)C(C)(C)C)C(C)(C)C)cc1` [Compound 14]: the LPE in series [1] (listed as CMP98 (14)) was 1.7. In addition, the Papp at 15 h in “in vitro” (pH 7.4) turned out to be 0.002 ± 0.0002 ×10⁻⁶ cm/s.

On to `CC(=O)N[C@H](C(=O)N1C[C@H](O)C[C@H]1C(=O)NCc1ccc(-c2scnc2C)cc1)C(C)(C)SCCOCCNC(=O)C[C@@H]1N=C(c2ccc(Cl)cc2)c2c(sc(C)c2C)-n2c(C)nnc21` [Compound 15], for which the results for the EC50 in the series with MV4;11 [4] and with HL60 [5] were 7240 nM and 12600 nM, respectively. The LPE in series [1] is −2.3. The Papp at 15 h in the series “in vitro” (pH 7.4) came out at 0.005 ± 0.003 ×10⁻⁶ cm/s.

On to `CC(=O)N[C@H](C(=O)N1C[C@H](O)C[C@H]1C(=O)NCc1ccc(-c2scnc2C)cc1)C(C)(C)SCCOCCOCCNC(=O)C[C@@H]1N=C(c2ccc(Cl)cc2)c2c(sc(C)c2C)-n2c(C)nnc21` [Compound 16], for which the “permeability relative to 15 (PAMPA)” value was “reduced by half”. Besides, in the series with MV4;11 [4], the EC50 is 692 nM. Also, the LPE in series [1] is −2.6. This molecule gave a Papp at 15 h in the series “in vitro” (pH 7.4) of 0.003 ×10⁻⁶ cm/s. The “pEC50 (HL60)” value with HL60 [5] was “BLQ”. Besides, where the note is “pH 7.4”, the “PAMPA permeability (Pe)” value is 0.003 ± 8.4x10-5.

On to `CC(=O)N[C@H](C(=O)N1C[C@H](O)C[C@H]1C(=O)NCc1ccc(-c2scnc2C)cc1)C(C)(C)SCCCCNC(=O)C[C@@H]1N=C(c2ccc(Cl)cc2)c2c(sc(C)c2C)-n2c(C)nnc21` [Compound 17], for which, in the series on MV4;11 [4], the EC50 is 617 nM. Further, the LPE in series [1] is given as -3.1. The “LPE lower than 15 (ΔLPE)” value in series [1] (alkyl-linked 17 vs PEG counterpart 15) is 0.8. Further, in the series “in vitro” (pH 7.4), the Papp at 15 h amounted to 0.002 ×10⁻⁶ cm/s. The “pEC50 (HL60)” value with HL60 [5] is on record as “BLQ”. The “fold less permeable than 15 (PAMPA)” value (pH 7.4) worked out at 2.5 fold.
